Source: US8735414B2 (priority 2009, dated 2014)

Experiments:
[1] = test system: bicistronic HCV replicon (replicon RNA, GenBank Accession No. AJ242654); assay: HCV Replicon Assay; assay type: cell-based; conditions: Hepatitis C virus, 72 h, read-out: Replicon IC50

CC(C)NS(=O)(=O)c1ccc(-c2c(C#N)c3ccc(OC(F)F)cc3n2C2CC2)cn1 [compound 39, 5-[3-cyano-1-cyclopropyl-6-(difluoromethoxy)-1H-indol-2-yl]-N-(propan-2-yl)pyridine-2-sulfonamide]
IC50 [1]: 2000 to 5000 nM
melting point: 209 to 210 °C

CCc1cc2c(cc1F)c(C#N)c(-c1ccc(S(=O)(=O)N[C@@H](C)C(F)(F)F)cn1)n2-c1ccc(F)c(F)c1 [compound 1061, 6-[3-cyano-1-(3,4-difluorophenyl)-6-ethyl-5-fluoro-1H-indol-2-yl]-N-[(2S)-1,1,1-trifluoropropan-2-yl]pyridine-3-sulfonamide]
IC50 [1]: < 500 nM
melting point: 229 to 235 °C

CC(C)n1c(-c2ccc(S(=O)(=O)NC(CF)CF)cn2)c(C#N)c2cc(F)ccc21 [compound 60, 6-[3-cyano-5-fluoro-1-(propan-2-yl)-1H-indol-2-yl]-N-(1,3-difluoropropan-2-yl)pyridine-3-sulfonamide]
IC50 [1]: < 500 nM
melting point: 168 to 170 °C

Cc1ccc2c(C#N)c(-c3ccc(S(=O)(=O)NC(C)(C)C(F)(F)F)cn3)n(C3CCC3)c2c1 [compound 478, 6-(3-cyano-1-cyclobutyl-6-methyl-1H-indol-2-yl)-N-(1,1,1-trifluoro-2-methylpropan-2-yl)pyridine-3-sulfonamide]
IC50 [1]: < 500 nM
melting point: 222 to 227 °C

N#Cc1ccc2c(C#N)c(-c3ncc(S(=O)(=O)NC(CF)CF)cn3)n(C3CCC3)c2c1 [compound 466, 2-(3,6-dicyano-1-cyclobutyl-1H-indol-2-yl)-N-(1,3-difluoropropan-2-yl)pyrimidine-5-sulfonamide]
IC50 [1]: < 500 nM
melting point: 240 to 241 °C

Cc1ccc2c(c1)c(C#N)c(-c1ccc(S(=O)(=O)N[C@@H](C)C(F)(F)F)cn1)n2-c1ccccn1 [compound 503, 6-[3-cyano-5-methyl-1-(pyridin-2-yl)-1H-indol-2-yl]-N-[(2S)-1,1,1-trifluoropropan-2-yl]pyridine-3-sulfonamide]
IC50 [1]: 500 to 2000 nM
melting point: 165 to 167 °C

CC(C)(C)NS(=O)(=O)c1ccc(-c2c(C#N)c3cc(F)c(C4CC4)cc3n2-c2ccccc2)nc1 [compound 1117, N-tert-butyl-6-(3-cyano-6-cyclopropyl-5-fluoro-1-phenyl-1H-indol-2-yl)pyridine-3-sulfonamide]
IC50 [1]: < 500 nM
melting point: 219.2 to 220.8 °C

Cc1ccc2c(C#N)c(-c3ccc(S(=O)(=O)NC(CF)CF)cn3)n(C3CCCCC3)c2c1 [compound 513, 6-(3-cyano-1-cyclohexyl-6-methyl-1H-indol-2-yl)-N-(1,3-difluoropropan-2-yl)pyridine-3-sulfonamide]
IC50 [1]: < 500 nM
melting point: 195 to 203 °C

C[C@H](NS(=O)(=O)c1ccc(-c2c(C#N)c3cc(F)c(C4CC4)cc3n2-c2ncccn2)nc1)C(F)(F)F [compound 820, 6-[3-cyano-6-cyclopropyl-5-fluoro-1-(pyrimidin-2-yl)-1H-indol-2-yl]-N-[(2S)-1,1,1-trifluoropropan-2-yl]pyridine-3-sulfonamide]
IC50 [1]: < 500 nM
melting point: 236 to 240 °C

CS(=O)(=O)Nc1ccc(-c2c(C#N)c3ccc(C4CC4)cc3n2C2CCC2)cn1 [compound 287, N-[5-(3-cyano-1-cyclobutyl-6-cyclopropyl-1H-indol-2-yl)pyridin-2-yl]methanesulfonamide]
IC50 [1]: 500 to 2000 nM
melting point: 239 to 241 °C

C[C@H](NS(=O)(=O)c1cnc(-c2c(C#N)c3ccc(F)cc3n2C2CCC2)nc1)C1CC1 [compound 496, 2-(3-cyano-1-cyclobutyl-6-fluoro-1H-indol-2-yl)-N-[(1S)-1-cyclopropylethyl]pyrimidine-5-sulfonamide]
IC50 [1]: 500 to 2000 nM
melting point: 207 to 208 °C

C[C@H](NS(=O)(=O)c1ccc(-c2c(C(=O)O)c3cc(F)ccc3n2C2CCCCC2)nc1)C(F)(F)F [compound 741, 1-cyclohexyl-5-fluoro-2-(5-{[(2S)-1,1,1-trifluoropropan-2-yl]sulfamoyl}pyridin-2-yl)-1H-indole-3-carboxylic acid]
IC50 [1]: 500 to 2000 nM
melting point: 216 to 220 °C

CCc1cc2c(cc1F)c(C(N)=O)c(-c1ccc(S(=O)(=O)N[C@@H](C)C(F)(F)F)cn1)n2C1CCCC1 [compound 830, 1-cyclopentyl-6-ethyl-5-fluoro-2-(5-{[(2S)-1,1,1-trifluoropropan-2-yl]sulfamoyl}pyridin-2-yl)-1H-indole-3-carboxamide]
IC50 [1]: < 500 nM
melting point: 237 to 238 °C

Cc1ccc2c(c1)c(C#N)c(-c1ncc(S(=O)(=O)NC(C)C)cn1)n2C1CCC1 [compound 121, 2-(3-cyano-1-cyclobutyl-5-methyl-1H-indol-2-yl)-N-(propan-2-yl)pyrimidine-5-sulfonamide]
IC50 [1]: < 500 nM
melting point: 134 to 138 °C

N#Cc1c(-c2ccc(S(=O)(=O)NC3(C(F)(F)F)CCC3)cn2)n(C2CCCC2)c2cc(OC(F)F)ccc12 [compound 588, 6-[3-cyano-1-cyclopentyl-6-(difluoromethoxy)-1H-indol-2-yl]-N-[1-(trifluoromethyl)cyclobutyl]pyridine-3-sulfonamide]
IC50 [1]: < 500 nM
melting point: 172 to 176 °C

C[C@H](NS(=O)(=O)c1ccc(-c2c(C#N)c3ccc(C#N)cc3n2C2CCCC2)nc1)C(F)(F)F [compound 470, 6-(3,6-dicyano-1-cyclopentyl-1H-indol-2-yl)-N-[(2S)-1,1,1-trifluoropropan-2-yl]pyridine-3-sulfonamide]
IC50 [1]: < 500 nM
melting point: 203 to 205 °C

CCn1c(-c2ccc(NS(=O)(=O)C(C)C)cn2)c(C#N)c2ccc(OC(C)C)cc21 [compound 286, N-{6-[3-cyano-1-ethyl-6-(propan-2-yloxy)-1H-indol-2-yl]pyridin-3-yl}propane-2-sulfonamide]
IC50 [1]: 500 to 2000 nM
melting point: 180 to 185 °C

N#Cc1c(-c2ncc(S(=O)(=O)NC(CF)CF)cn2)n(C2CCCC2)c2cc(CC(F)F)ccc12 [compound 599, 2-[3-cyano-1-cyclopentyl-6-(2,2-difluoroethyl)-1H-indol-2-yl]-N-(1,3-difluoropropan-2-yl)pyrimidine-5-sulfonamide]
IC50 [1]: < 500 nM
melting point: 174 to 210 °C

Cc1cc2c(cc1F)c(C#N)c(-c1ccc(S(=O)(=O)N[C@@H](C)C(F)(F)F)cn1)n2-c1ccsc1Cl [compound 1057, 6-[1-(2-chlorothiophen-3-yl)-3-cyano-5-fluoro-6-methyl-1H-indol-2-yl]-N-[(2S)-1,1,1-trifluoropropan-2-yl]pyridine-3-sulfonamide]
IC50 [1]: < 500 nM
melting point: 226.7 to 231.8 °C

CCc1cc2c(cc1F)c(C#N)c(-c1ccc(S(=O)(=O)N[C@@H](C)C(F)(F)F)cn1)n2-c1cccc(F)n1 [compound 930, 6-[3-cyano-6-ethyl-5-fluoro-1-(6-fluoropyridin-2-yl)-1H-indol-2-yl]-N-[(2S)-1,1,1-trifluoropropan-2-yl]pyridine-3-sulfonamide]
IC50 [1]: < 500 nM
melting point: 205 to 211 °C

COc1ccc2c(C#N)c(-c3ccc(S(=O)(=O)N[C@@H](C)C(F)(F)F)cn3)n(C3CCC3)c2c1 [compound 427, 6-(3-cyano-1-cyclobutyl-6-methoxy-1H-indol-2-yl)-N-[(2S)-1,1,1-trifluoropropan-2-yl]pyridine-3-sulfonamide]
IC50 [1]: < 500 nM
melting point: 206 to 212 °C

CNC(=O)c1c(-c2ccc(S(=O)(=O)NC(C)(C)C)cn2)n(C2CCCC2)c2cc(C)c(F)cc12 [compound 799, 2-[5-(tert-butylsulfamoyl)pyridin-2-yl]-1-cyclopentyl-5-fluoro-N,6-dimethyl-1H-indole-3-carboxamide]
IC50 [1]: < 500 nM
melting point: 248 to 250 °C

C[C@H](NS(=O)(=O)c1ccc(-c2c(C#N)c3cc(C(F)F)ccc3n2C2CCCC2)nc1)C(F)(F)F [compound 537, 6-[3-cyano-1-cyclopentyl-5-(difluoromethyl)-1H-indol-2-yl]-N-[(2S)-1,1,1-trifluoropropan-2-yl]pyridine-3-sulfonamide]
IC50 [1]: < 500 nM
melting point: 187 to 188 °C

CC(C)NS(=O)(=O)c1cnc(-c2c(C#N)c3ccc(C4CC4)cc3n2CC2CC2)nc1 [compound 124, 2-[3-cyano-6-cyclopropyl-1-(cyclopropylmethyl)-1H-indol-2-yl]-N-(propan-2-yl)pyrimidine-5-sulfonamide]
IC50 [1]: < 500 nM
melting point: 169 to 174 °C

CCS(=O)(=O)Nc1ccc(-c2c(C#N)c3ccc(OCC(F)(F)F)cc3n2CC2CC2)nc1 [compound 284, N-{6-[3-cyano-1-(cyclopropylmethyl)-6-(2,2,2-trifluoroethoxy)-1H-indol-2-yl]pyridin-3-yl}ethanesulfonamide]
IC50 [1]: 500 to 2000 nM
melting point: 190 to 195 °C

Cc1ccc2c(c1)c(C#N)c(-c1ccc(S(=O)(=O)N[C@@H](C)C(F)(F)F)cn1)n2-c1ccc(F)cc1 [compound 920, 6-[3-cyano-1-(4-fluorophenyl)-5-methyl-1H-indol-2-yl]-N-[(2S)-1,1,1-trifluoropropan-2-yl]pyridine-3-sulfonamide]
IC50 [1]: < 500 nM
melting point: 195 to 200 °C

C[C@H](NS(=O)(=O)c1ccc(-c2c(C#N)c3cc(Cl)ccc3n2C2CCC2)nc1)C(F)(F)F [compound 376, 6-(5-chloro-3-cyano-1-cyclobutyl-1H-indol-2-yl)-N-[(2S)-1,1,1-trifluoropropan-2-yl]pyridine-3-sulfonamide]
IC50 [1]: < 500 nM
melting point: 193 to 198 °C

CCCn1c(-c2ncc(S(=O)(=O)N[C@@H](C)C3CC3)cn2)c(C#N)c2ccc(OC(F)F)cc21 [compound 208, 2-[3-cyano-6-(difluoromethoxy)-1-propyl-1H-indol-2-yl]-N-[(1S)-1-cyclopropylethyl]pyrimidine-5-sulfonamide]
IC50 [1]: < 500 nM
melting point: 152 to 154 °C

COc1cc2c(C(N)=O)c(-c3ccc(S(=O)(=O)N[C@H](C)C(F)(F)F)cn3)n(C3CCCC3)c2cc1C [compound 834, 1-cyclopentyl-5-methoxy-6-methyl-2-(5-{[(2R)-1,1,1-trifluoropropan-2-yl]sulfamoyl}pyridin-2-yl)-1H-indole-3-carboxamide]
IC50 [1]: 2000 to 5000 nM
melting point: 273 to 275 °C
